Measured values as given in patent publication US10478421B1, “Sortilin binding compounds, formulations, and uses thereof” (University of Florida, priority 2016, dated 2019).

Tested on: McA cells
Test: Insulin signaling (pY-IRβ, p-AKT S473) by immunoblotting in McA cells
Type: cell-based, rat
Conditions: 10 μM, 18 h, then 250 nM insulin
Protocol: (FIG. 4A) McA cell lines with variable sortilin KD were incubated with vehicle (black bars) or with 10 μM cpd984 (gray bars) for 18 h (3-100 mm plates per condition). […] VLDL was isolated from media of each plate and VLDL-B100 was quantified by immuno slot blotting. Results presented are averages of the 3 plates ±S.D. (FIG. 4B) McA cells were incubated for 18 h in 1% BSA/DMEM±10 μM cpd984. McA cells were then stimulated with a time course of 250 nM insulin (0, 5, 10 and 15 min). IRβ and AKT, pY-IRβ, and p-AKT (S473) were evaluated by immunoblotting using protein and phosphospecific antibodies.
McA cell lysates were prepared and denatured proteins were separated by SDS-PAGE as described previously. Following electrophoretic transfer to PVDF membranes and blocking non-specific binding, membranes were incubated with primary antibodies overnight at 4° C. in blocking buffer. Antibody binding was detected by incubation for 1-2 h at room temperature with species specific secondary HRP-linked antibodies and developed using Amersham™ Prime reagent (GE Healthcare). Insulin signaling to IRβ and AKT were evaluated using nitrocellulose membranes (Bio-Rad) and phosphospecific (pY, p-AKT(Ser473) and mass specific antibodies. Chemiluminescence was measured using the ChemiDocXRS+system (Bio-Rad) and band intensities quantified using Image Lab 3.0.1 software (Bio-Rad).

Structure (SMILES): CN1CCC[C@H]1C(=O)Nc1cccc(NC(=O)CCc2ccccc2)c1 [cpd984, (2S)-1-methyl-N-{3-[(3-phenylpropanoyl)-amino]phenyl} pyrrolidine-2-carboxamide]
- effect on insulin sensitivity (insulin-dependent pY of IRβ, pAKT): did not alter insulin sensitivity
